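Each compound was tested at five concentrations against cells in 96-well plates for 48 hours. GI50: concentration for 50% inhibition of growth.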 The source made the active and inactive calls. Cut-off read from the data, not from the text of the source: active = GI50 up to about 1.1 µM and inactive = higher.
Assays:
Test in all cases: inhibition of tumour cell growth, NCI panel, 48 h
[1] = system: SF-268
[2] = system: U-251
[3] = system: BT-549
[4] = system: CAKI-1
[5] = system: HCC 2998
[6] = system: HOP-62
[7] = system: HT-29
[8] = system: K562
[9] = system: MCF7
[10] = system: Malme-3M
[11] = system: NCI-H226
[12] = system: OVCAR-8
[13] = system: RXF 393
[14] = system: SF-295
[15] = system: SF-539
[16] = system: SK-MEL-2
[17] = system: SN12C
[18] = system: SNB-75
[19] = system: 786-0
[20] = system: A498
[21] = system: A549
[22] = system: ACHN
[23] = system: COLO 205
[24] = system: DU-145
[25] = system: EKVX
[26] = system: HCT-116
[27] = system: HCT-15
[28] = system: HOP-92
[29] = system: IGROV-1
[30] = system: KM12
[31] = system: LOX IMVI
[32] = system: M14
[33] = system: MDA-MB-231
[34] = system: MDA-MB-435
[35] = system: MDA-N
[36] = system: MOLT-4
[37] = system: NCI-H23
[38] = system: NCI-H460
[39] = system: NCI-H522
[40] = system: NCI/ADR-RES
[41] = system: OVCAR-3
[42] = system: OVCAR-4
[43] = system: OVCAR-5
[44] = system: RPMI-8226
[45] = system: SK-MEL-28
[46] = system: SK-MEL-5
[47] = system: SK-OV-3
[48] = system: SNB-19
[49] = system: SW-620
[50] = system: T47D
[51] = system: TK-10
[52] = system: UACC-257
[53] = system: UO-31
[54] = system: CCRF-CEM
[55] = system: HL-60
[56] = system: PC-3
[57] = system: SR
[58] = system: UACC-62

Measured: GI50

CC(=O)OCC1OC(O[C@@H]2C[C@H]3C(C)(C)[C@H](OC(C)=O)CC[C@]3(C)[C@H]3CCC4=C([C@@H](C)C[C@@H](O)[C@H](O)C(C)(C)O)CC[C@@]4(C)[C@@]32C)C(O)C(O)C1O (some centres not stated)
inactive: [1] 13.6 µM | [2] 14.6 µM

CC(=O)OCC(OC(C)=O)C(OC(C)=O)C(C=NN(C(C)=O)S(=O)(=O)c1ccc(/C=C2\NC(=O)NC2=O)cc1)OC(C)=O (configuration not stated)
inactive: [3] > 100 µM | [4] > 100 µM | [5] > 100 µM | [6] > 100 µM | [7] > 100 µM | [8] > 100 µM | [9] > 100 µM | [10] > 100 µM | [11] > 100 µM | [12] > 100 µM | [13] > 100 µM | [14] > 100 µM | [15] > 100 µM | [16] > 100 µM | [17] > 100 µM | [18] > 100 µM

Cc1cnc(Cl)nc1C(C#N)c1nc2ccccc2s1 (configuration not stated)
16.6 µM: [27]
inactive: [19] 15.7 µM | [20] 25.2 µM | [21] 29 µM | [22] 18.7 µM | [3] 12.4 µM | [4] 22.4 µM | [23] 14.2 µM | [24] 31.8 µM | [25] 32.8 µM | [26] 10.5 µM | [6] 22.2 µM | [28] 7.33 µM | [7] 29.6 µM | [29] 21.6 µM | [30] 33.8 µM | [31] 18.8 µM | [32] 28 µM | [33] 40.9 µM | [34] 22.5 µM | [35] 15 µM | [36] 63.5 µM | [10] 9.31 µM | [11] 14.7 µM | [37] 7 µM | [38] 30.7 µM | [39] 2.84 µM | [40] 22 µM | [41] 25.5 µM | [42] 22.8 µM | [43] 25.8 µM | [12] 25.7 µM | [44] 12.6 µM | [13] 17.2 µM | [1] 15.7 µM | [14] 19.8 µM | [15] 25.8 µM | [45] 69 µM | [46] 5.57 µM | [47] 18 µM | [17] 14.1 µM | [48] 34.2 µM | [18] 18.8 µM | [49] 33.6 µM | [50] 34.1 µM | [51] 24.8 µM | [2] 20.1 µM | [52] 31.7 µM | [53] 31.7 µM

Cc1cccc2c1Oc1cc(Cl)ccc1C2NC(=O)CCN1CCN(CCO)CC1 (configuration not stated)
18.4 µM: [27]
inactive: [19] 13.6 µM | [21] 11.5 µM | [3] 15.1 µM | [54] 17.7 µM | [23] 17.7 µM | [24] 27.2 µM | [25] 20.8 µM | [5] 28.6 µM | [26] 18.6 µM | [55] 9.46 µM | [6] 17.2 µM | [28] 10.7 µM | [7] 15 µM | [29] 22.1 µM | [8] 18.2 µM | [30] 3.55 µM | [31] 2.75 µM | [32] 15.5 µM | [9] 15.2 µM | [33] 3.69 µM | [34] 14 µM | [35] 4.25 µM | [36] 14.4 µM | [37] 23.1 µM | [38] 19.1 µM | [39] 11.1 µM | [40] 15.8 µM | [41] 17.7 µM | [42] 16 µM | [43] 21.1 µM | [12] 13.4 µM | [56] 14.5 µM | [1] 23.3 µM | [14] 18.3 µM | [15] 13.1 µM | [45] 3.13 µM | [46] 14 µM | [47] 25.9 µM | [17] 15 µM | [48] 22 µM | [18] 4.61 µM | [57] 21.8 µM | [49] 18.3 µM | [50] 17.4 µM | [51] > 10 µM | [2] 15.1 µM | [52] 16.6 µM | [58] 5.66 µM | [53] 12.8 µM

Reference: ChEMBL document CHEMBL1201862, “PubChem BioAssay data set” (2004)
